Experimental data: US8865191B2, “Lipid composition and skin care formulation containing the same” (Takasago International Corporation, priority 2003, dated 2014)

Experiment: Liquid crystal dispersion system formation with changed component (i)
Assay type: physicochemical
Conditions: component (i): phytosterol 2, cetanol 5, Table 6 component 3, δ-tocopherol 0.1 parts by weight
Source text: The racemic ceramide was obtained by converting a racemic sphinganine obtained by the method by D. Shapiro., et al., (J. Am. Chem. Soc., 80, 2170(1958)) into its stearoyl form.

With CCCCCCCCCCCCCCCCCC(=O)NC(CO)C(O)CCCCCCCCCCCCCCC (racemic) [racemic ceramide] the System morphology was “difficult to form a stable liquid crystal dispersion system”.
